Source: the Deep4Chem optical property database
Values belong to the molecule of their own block, whether it stands above or below them.

Experiment: photoluminescence quantum yield (fraction); solvent given as SMILES

- photoluminescence quantum yield (in ClC(Cl)Cl): 0.05
SMILES: F[B-]1(F)n2c(cc3sc4ccccc4c32)C(c2ccc(I)cc2)=C2C=c3sc4ccccc4c3=[N+]21

- photoluminescence quantum yield (in CC#N): 0.064
SMILES: COc1ccc(-n2nc(C#N)c(N3CCN(c4ccccn4)CC3)n2)cc1

- photoluminescence quantum yield (in ClCCl): 0.19
SMILES: Cc1cc(-c2ccc(N(c3ccccc3)c3ccccc3)cc2)c2nsnc2c1-c1ccc(C(C)(C)C)cc1

- photoluminescence quantum yield (in CCO): 0.36
SMILES: CCN(CC)c1ccc(C=Cc2nc3nc4ccccc4nc3s2)cc1

- photoluminescence quantum yield (in ClCCl): 0.52
SMILES: COc1ccc(-c2c3ccccc3c(-c3ccc(OC)cc3)c3cc4sc(C)cc4cc23)cc1

- photoluminescence quantum yield (in C1COCCO1): 0.034
SMILES: COc1ccc(C2=N/C(=C\c3ccccc3)C(=O)N2)cc1OC

- photoluminescence quantum yield (in C1CCOC1): 0.448
SMILES: COc1cc2oc(=O)c3c4ccc(C(=O)c5ccccc5)cc4c4ccc5cccc6c(c1)c2c3c4c56

- photoluminescence quantum yield (in CC#N): 1
- photoluminescence quantum yield (in CCO): 0.98
- photoluminescence quantum yield (in CN(C)C=O): 1
- photoluminescence quantum yield (in CO): 1
- photoluminescence quantum yield (in O): 0.99
SMILES: O=C([O-])c1ccccc1C1=c2cc3c4c(c2Oc2c1cc1c5c2CCCN5CCC1)CCC[N+]=4CCC3

- photoluminescence quantum yield (in ClCCl): 0.71
SMILES: O=P1(c2ccccc2)c2ccccc2-c2sc3ccccc3c21 (configuration not stated)

- photoluminescence quantum yield (in C1CCCCC1): 0.62
SMILES: c1ccc(-c2ccc(-c3ccc4c(c3)CCCO4)cc2)cc1

- photoluminescence quantum yield (in O): 0.26
SMILES: O=S(=O)([O-])c1ccc([O-])c2ccccc12

- photoluminescence quantum yield (in ClCCl): 0.36
SMILES: O=P1(c2ccccc2)c2cccc3ccc4ccc1n4c23 (configuration not stated)

Second part, the molecule before the results:

SMILES: CCN(CC)c1ccc2cc(/C=C/C(=O)/C=C(O)/C=C/c3cc4ccc(N(CC)CC)cc4oc3=O)c(=O)oc2c1
- photoluminescence quantum yield (in C1CCOC1): 0.62
- photoluminescence quantum yield (in C1COCCO1): 0.66
- photoluminescence quantum yield (in CC#N): 0.06
- photoluminescence quantum yield (in CC(C)=O): 0.2
- photoluminescence quantum yield (in CCOC(C)=O): 0.56
- photoluminescence quantum yield (in CS(C)=O): 0.05
- photoluminescence quantum yield (in Cc1ccccc1): 0.76
- photoluminescence quantum yield (in ClC(Cl)Cl): 0.45
- photoluminescence quantum yield (in ClCCl): 0.44

SMILES: CC(C)c1cc(C(C)C)c(B2c3ccccc3Oc3cc(N4c5ccccc5C5(c6ccccc6-c6ccccc65)c5ccccc54)ccc32)c(C(C)C)c1
- photoluminescence quantum yield (in Cc1ccccc1): 0.76

SMILES: CC1(C)C(/C=C/C=C/C=C/C=C2/N(c3ccc(S(=O)(=O)[O-])cc3)c3ccc(S(=O)(=O)[O-])cc3C2(C)C)=[N+](c2ccc(S(=O)(=O)[O-])cc2)c2ccc(S(=O)(=O)[O-])cc21
- photoluminescence quantum yield (in CO): 0.47
- photoluminescence quantum yield (in O): 0.21

SMILES: CCCC1=Cc2nc1ccc1[nH]c(cc1CCO)c1nc(ccc3[nH]c2cc3CCC)C(CCO)=C1
- photoluminescence quantum yield (in Cc1ccccc1): 0.4

SMILES: COc1cc(OC)cc(C(=O)OCc2c(C)c(=O)n3c(=O)c(C)c(C)n23)c1
- photoluminescence quantum yield (in CCO): 0.638

SMILES: Fc1ccc(C#Cc2c(C#Cc3ccc(F)cc3)c(C#Cc3ccc(F)cc3)c(C#Cc3ccc(F)cc3)c(C#Cc3ccc(F)cc3)c2C#Cc2ccc(F)cc2)cc1
- photoluminescence quantum yield (in ClCCl): 0.25

SMILES: CCCCCCCCCCCCCCCCCCN1C(=O)c2ccc3c4ccc5c6c(ccc(c7ccc(c2c37)C1=O)c64)C(=O)NC5=O
- photoluminescence quantum yield (in CN(C)C=O): 0.37

SMILES: CC(C)(C)c1ccc2c(c1)c1cc(C(C)(C)C)ccc1n2-c1cc[n+]2c(c1)-c1ccccc1O[B-]2(F)F
- photoluminescence quantum yield (in O=P(c1ccccc1)(c1ccccc1)c1ccccc1Oc1ccccc1P(=O)(c1ccccc1)c1ccccc1): 0.74

SMILES: CCCCCCCCC1(CCCCCCCC)c2ccccc2-c2ccc(-c3nnc(-c4ccc(-n5c6ccc(C(C)(C)C)cc6c6cc(C(C)(C)C)ccc65)cc4)o3)cc21
- photoluminescence quantum yield (in Cc1ccccc1): 0.88

SMILES: CNc1cc2nc3cc(Cl)c(Cl)cc3nc2cc1NC
- photoluminescence quantum yield (in CCO): 0.14

SMILES: CCCCCCCCCCCCCCCCCCOC(=O)/C=C/C1=CC2=C(c3c(C)cc(C)cc3C)c3cc(/C=C/C(=O)OCCCCCCCCCCCCCCCCCC)cn3[B-](F)(F)[N+]2=C1
- photoluminescence quantum yield (in ClCCl): 0.34

SMILES: CCCCCCCCCCCCC1(CCCCCCCCCCCC)c2cc(-c3ccc(C=C4C(=O)c5ccccc5C4=O)cc3)ccc2-c2ccc(-c3ccc(C=C4C(=O)c5ccccc5C4=O)cc3)cc21
- photoluminescence quantum yield (in C1CCOC1): 0.046
- photoluminescence quantum yield (in CC(C)=O): 0.121
- photoluminescence quantum yield (in CCCCCC): 0.008
- photoluminescence quantum yield (in CS(C)=O): 0.228
- photoluminescence quantum yield (in Cc1ccccc1): 0.012
- photoluminescence quantum yield (in ClC(Cl)Cl): 0.013
